In US5036059A, “1,4-Dihydropyridine-3-carboxylate derivatives” (Nippon Shinyaku Company, Limited, priority 1984, dated 1991) one finds activation and inhibition in vivo data, which are given here for 17 compounds.

The structures appear in SMILES notation.

One assay deals with guinea pig heart. Kind of assay: Coronary vasodilating action, constant pressure perfusion of isolated guinea pig heart (Langendorff). The conditions noted are these: Cavia porcellus, via coronary artery, read-out: Perfusion Increasing Rate; for activation at 0.001 mg: 10^-6 gram/heart; for activation at 0.0001 mg: 10^-7 gram/heart. As to the method:
Constant pressure perfusion samples of guinea pig heart isolated by a method according to Langendorff were treated with the present invention compounds by administration via coronary artery and the effect was examined (Table 1).
With reference to coronary vasodilating action of diltiazem measured by the same method, the increasing rates in perfusion by administration of 10^-7, 10^-6 and 10^-5 gram/heart were 4, 16 and 55%, respectively.

For assay [1], the system named is rats (with normal blood pressure). Kind of assay: Hypotensive action, mean blood pressure of femoral artery in unanesthetized normotensive rats, oral. The class given is in vivo. The conditions noted are these: Rattus norvegicus, read-out: % Decreases in Mean Blood Pressure [at peak effect]; for inhibition in vivo at 1 mg/kg: 1 mg/kg oral; for inhibition in vivo at 3 mg/kg: 3 mg/kg oral; for inhibition in vivo at 10 mg/kg: 10 mg/kg oral. The procedure: Blood pressure of femoral artery of rats (with normal blood pressure) under unanesthetized condition was measured directly using a pressure tranducer.
The present invention compounds were given orally at doses of 1, 3 and 10 mg/kg, and changes in blood pressure were continuously recorded. Percent decreases of mean blood pressure at the peak effect were calculated. The maximum changes in mean blood pressure (%) were shown as "hypotensive action" (Table 2).
Hypotensive action of diltiazem (which is a known hypotensive drug) measured by the same method at the doses of 3, 10 and 30 mg/kg were 0, 11.2 and 33.0%, respectively. Hypotensive action of the compound of Example 4 which is one of the most representative compounds of this invention was tested using spontaneously hypertensive rats and was compared with those of Nifedipine and Diltiazem hydrochloride. The method applied was that the drugs were orally given to the rats of which systolic arterial blood pressure were higher than 180 mmHg when it was measured plethysmographically using tail arteries. (Table 3)

Take `CC1=C(C(=O)OC(C)C)C(c2ccccc2[N+](=O)[O-])C(P2(=O)OCCCO2)=C(C)N1` (stereo not drawn) [Example 6, Isopropyl 2,6-dimethyl-4-(2-nitrophenyl)-5-(2-oxo-1,3,2-dioxaphosphorinan-2-yl)-1,4-dihydropyridine-3-carboxylate]: in the assay with guinea pig heart, the activation at 0.001 mg is 52% and the activation at 0.0001 mg was 10%.
For `CC1=C(C(=O)OCCN(C)Cc2ccccc2)C(c2cccc([N+](=O)[O-])c2)C(P2(=O)OCC3(CCC3)CO2)=C(C)N1` (stereo not drawn) [Example 37, 2-(N-Benzyl-N-methylamino)-ethyl-2,6-dimethyl-4-(3-nitrophenyl)-5-(7-oxo-6,8-dioxa-7-phosphaspiro(3,5)nonan-7-yl)-1,4-dihydropyridine-3-carboxylate], in that order: 26% and 22%.
With `CCCOCCOC(=O)C1=C(C)NC(C)=C(P2(=O)OCC(C)(C)CO2)C1c1cccc([N+](=O)[O-])c1` (stereo not drawn) [Example 11, 2-n-Propoxyethyl 2,6-dimethyl-5-(5,5-dimethyl-2-oxo-1,3,2-dioxaphosphorinan-2-yl)-4-(3-nitrophenyl)-1,4-dihydropyridine-3-carboxylate], in the assay on guinea pig heart, the activation at 0.001 mg was 53% and the activation at 0.0001 mg worked out at 11%.
For `CC(=O)COC(=O)C1=C(C)NC(C)=C(P2(=O)OCCCO2)C1c1ccccc1C(F)(F)F` (stereo not drawn) [Example 76, 2-Oxopropyl 2,6-dimethyl-5-(2-oxo-1,3,2-dioxaphosphorinan-2-yl)-4-(2-trifluoromethylphenyl)-1,4-dihydropyridine-3-carboxylate], in assay [1], the inhibition in vivo at 1 mg/kg was determined as 10.5%, the inhibition in vivo at 3 mg/kg amounted to 35% and the inhibition in vivo at 10 mg/kg was 40.2%.
Turning to `CC1=C(C(=O)OCCN(C)Cc2ccccc2)C(c2cccc([N+](=O)[O-])c2)C(P2(=O)OCCCO2)=C(C)N1` (stereo not drawn) [Example 2, 2-(N-benzyl-N-methylamino)ethyl 2,6-dimethyl-4-(3-nitrophenyl)-5-(2-oxo-1,3,2-dioxaphosphorinan-2-yl)-1,4-dihydropyridine-3-carboxylate], in assay [1], the inhibition in vivo at 1 mg/kg was found to be 18.4%, the inhibition in vivo at 3 mg/kg was 39.2% and the inhibition in vivo at 10 mg/kg was determined as 50.1%.
On to `CCOC(=O)C1=C(C)NC(C)=C(P2(=O)OCCCO2)C1c1cccc(Cl)c1Cl` (stereo not drawn) [Example 57, Ethyl 4-(2,3-dichlorophenyl)-2,6-dimethyl-5-(2-oxo-1,3,2-dioxaphosphorinan-2-yl)-1,4-dihydropyridine-3-carboxylate], for which, in the assay with guinea pig heart, the activation at 0.001 mg was 17% and the activation at 0.0001 mg was determined as 11%.
Consider `CC1=C(C(=O)OCCN(C)Cc2ccccc2)C(c2cccc([N+](=O)[O-])c2)C(P2(=O)OCC(C)(C)CO2)=C(C)N1` (stereo not drawn) [Example 9, 2-(N-Benzyl-N-methylamino)-ethyl 2,6-dimethyl-5-(5,5-dimethyl-2-oxo-1,3,2-dioxaphosphorinan-2-yl)-4-(3-nitrophenyl)-1,4-dihydropyridine-3-carboxylate], for which, in assay [1], the inhibition in vivo at 1 mg/kg came to 12.7%, the inhibition in vivo at 3 mg/kg came to 12.9% and the inhibition in vivo at 10 mg/kg amounted to 40.4%.
Consider `CCC1COP(=O)(C2=C(C)NC(C)=C(C(=O)OC)C2c2ccccc2[N+](=O)[O-])OC1` (stereo not drawn) [Example 30, Methyl 5-(5-ethyl-2-oxo-1,3,2-dioxaphosphorinan-2-yl)-2,6-dimethyl-4-(2-nitrophenyl)-1,4-dihydropyridine-3-carboxylate], for which, in the assay on guinea pig heart, the activation at 0.001 mg was found to be 26% and the activation at 0.0001 mg is 13%.
With `CCOC(=O)C1=C(C)NC(C)=C(P2(=O)OCCCO2)C1c1ccccc1[N+](=O)[O-]` (stereo not drawn) [Example 5, Ethyl 2,6-dimethyl-4-(2-nitrophenyl)-5-(2-oxo-1,3,2-dioxaphosphorinan-2-yl)-1,4-dihydropyridine-3-carboxylate], in assay [1], the inhibition in vivo at 1 mg/kg was determined as 39.7%, the inhibition in vivo at 3 mg/kg came to 43.3% and the inhibition in vivo at 10 mg/kg was 46.2%.
Turning to `COC(=O)C1=C(C)NC(C)=C(P2(=O)OCC(C(C)C)CO2)C1c1ccccc1[N+](=O)[O-]` (stereo not drawn) [Example 34, Methyl 2,6-dimethyl-5-(5-isopropyl-2-oxo-1,3,2-dioxaphosphorinan-2-yl)-4-(2-nitrophenyl)-1,4-dihydropyridine-3-carboxylate], in the assay with guinea pig heart, the activation at 0.001 mg turned out to be 38% and the activation at 0.0001 mg worked out at 13%.
For `CCC1COP(=O)(C2=C(C)NC(C)=C(C(=O)OC)C2c2cccc([N+](=O)[O-])c2)OC1` (stereo not drawn) [Example 28, Methyl 5-(5-ethyl-Z-oxo-1,3,2-dioxaphosphorinan-2-yl)-2,6-dimethyl-4-(3-nitrophenyl)-1,4-dihydropyridine-3-carboxylate], in assay [1], the inhibition in vivo at 1 mg/kg was found to be 16.5%, the inhibition in vivo at 3 mg/kg turned out to be 26.6% and the inhibition in vivo at 10 mg/kg came out at 33.9%.
For `CC1=C(C(=O)OCC2CC2)C(c2ccccc2[N+](=O)[O-])C(P2(=O)OCCCO2)=C(C)N1` (stereo not drawn) [Example 68, Cyclopropylmethyl 2,6-dimethyl-4-(2-nitrophenyl)-5-(2-oxo-1,3,2-dioxaphosphorinan-2-yl)-1,4-dihydropyridine-3-carboxylate], in that order: 13%, 41.7% and 45.8%.
For `COC(=O)C1=C(C)NC(C)=C(P2(=O)OCC(C)(C)CO2)C1c1cccc([N+](=O)[O-])c1` (stereo not drawn) [Example 7, Methyl 2,6-dimethyl-5-(5,5-dimethyl-2-oxo-1,3,2-dioxaphosphorinan-2-yl)-4-(3-nitrophenyl)-1,4-dihydropyridine-3-carboxylate], in that order: 12.7%, 18.4% and 31.4%.
Taken in the same sequence, the figures for `CCOC(=O)C1=C(C)NC(C)=C(P2(=O)OCCCO2)C1c1ccccc1C(F)(F)F` (stereo not drawn) [Example 51, Ethyl 2,6-dimethyl-5-(2-oxo-1,3,2-dioxaphosphorinan-2-yl)-4-(2-trifluoromethylphenyl)-1,4-dihydropyridine-3-carboxylate] were 21.1%, 43% and 45.4%.
As to `COC(=O)C1=C(C)NC(C)=C(P2(=O)OC(C)CC(C)O2)C1c1ccccc1[N+](=O)[O-]` (stereo not drawn) [Example 18, Methyl 2,6-dimethyl-5-(4,6-dimethyl-2-oxo-1,3,2-dioxaphosphorinan-2-yl)-4-(2-nitrophenyl)-1,4-dihydropyridine-3-carboxylate], in assay [1], the inhibition in vivo at 1 mg/kg turned out to be 15.7%, the inhibition in vivo at 3 mg/kg amounted to 42.7% and the inhibition in vivo at 10 mg/kg was found to be 45.5%.
Consider `COC(=O)C1=C(C)NC(C)=C(P2(=O)OCC(C)CO2)C1c1cccc([N+](=O)[O-])c1` (stereo not drawn) [Example 26], for which, in assay [1], the inhibition in vivo at 1 mg/kg came out at 28.7%, the inhibition in vivo at 3 mg/kg turned out to be 37.1% and the inhibition in vivo at 10 mg/kg amounted to 43.8%.
`CC1=C(C(=O)OCCN(C)Cc2ccccc2)C(c2ccccc2OC(F)F)C(P2(=O)OCC(C)(C)CO2)=C(C)N1` (stereo not drawn) [Example 64, 2-(N-Benzyl-N-methylamino)-ethyl 4-(2-difluoromethoxyphenyl)-2,6-dimethyl-5-(5,5-dimethyl-2-oxo-1,3,2-dioxaphosphorinan-2-yl)-1,4-dihydropyridine-3-carboxylate]: in assay [1], the inhibition in vivo at 1 mg/kg was 6.9%, the inhibition in vivo at 3 mg/kg came out at 16.5% and the inhibition in vivo at 10 mg/kg is 41.5%.
